# Target: T1, MAP3K3 (MEKK3) (Homo sapiens, UniProt Q99759)
# T1 construct: purchased Thermo Fisher Scientific (Life Technologies) SelectScreen
# Experiment: SelectScreen LanthaScreen
# Assay type: binding
# Settings: read-out: % displacement
# Method in brief: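 SelectScreen broad panel; activity (Z'LYTE, Adapta) plus binding formats. ATP: Km app for CSF1R Z'LYTE; 10 for CAMK1 Adapta. Readout = % per kinase.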
# T1 sequence (Q99759 whole entry): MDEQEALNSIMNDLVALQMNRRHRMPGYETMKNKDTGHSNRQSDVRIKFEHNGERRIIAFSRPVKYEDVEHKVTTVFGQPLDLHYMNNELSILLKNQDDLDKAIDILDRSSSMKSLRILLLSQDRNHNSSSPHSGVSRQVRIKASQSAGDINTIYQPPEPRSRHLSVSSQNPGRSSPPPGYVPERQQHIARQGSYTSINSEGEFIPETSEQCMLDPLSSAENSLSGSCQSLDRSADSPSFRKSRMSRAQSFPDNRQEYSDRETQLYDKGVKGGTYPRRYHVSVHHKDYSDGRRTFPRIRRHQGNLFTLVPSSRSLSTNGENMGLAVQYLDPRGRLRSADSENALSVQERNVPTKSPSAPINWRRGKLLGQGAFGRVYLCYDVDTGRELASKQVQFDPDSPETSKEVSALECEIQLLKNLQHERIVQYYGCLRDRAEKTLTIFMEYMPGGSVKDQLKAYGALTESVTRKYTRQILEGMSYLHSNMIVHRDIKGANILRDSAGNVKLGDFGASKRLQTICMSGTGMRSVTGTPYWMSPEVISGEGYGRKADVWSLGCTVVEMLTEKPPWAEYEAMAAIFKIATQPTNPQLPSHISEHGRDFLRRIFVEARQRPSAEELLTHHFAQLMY
smiles,measurement,value
CN(C(=O)CN1CCOCC1)c1ccc2sc3c(-c4cccc5c(=O)cc(N6CC7CCC(C6)O7)oc45)cccc3c2c1 [NU5455],inhibition at 1 µM,-1.1%
